Key:
[1] = xn = mol fraction of the nth substance listed; conditions: 101 kPa, Liquid, Vibrating tube method
[2] = refractive index (Na D-line) (dimensionless); xn = mol fraction of the nth substance listed; conditions: 101 kPa, Liquid, Standard Abbe refractometry

CCCC(=O)[O-].C[NH2+]CCO [N-methyl-2-hydroxyethylammonium butanoate] + CCOC(C)=O
Conditions | mass density, [1] [kg/m3] | refractive index, [2]
303.15 K, x2 = 0 | 1035.87 | 1.4534
303.15 K, x2 = 0.0454 | – | 1.4533
303.15 K, x2 = 0.0956 | – | 1.4511
303.15 K, x2 = 0.199 | 1013.58 | 1.4472
303.15 K, x2 = 0.2901 | 1004.61 | 1.4411
303.15 K, x2 = 0.412 | – | 1.4324
303.15 K, x2 = 0.507 | 981.19 | 1.4246
303.15 K, x2 = 0.6018 | – | 1.4161
303.15 K, x2 = 0.7039 | 950.35 | 1.4055
303.15 K, x2 = 0.8031 | 931.53 | 1.3949
303.15 K, x2 = 0.8998 | 911.57 | 1.3812
303.15 K, x2 = 0.9497 | – | 1.3746
303.16 K, x2 = 0.0454 | 1026.24 | –
303.16 K, x2 = 0.0956 | 1022.32 | –
303.16 K, x2 = 0.412 | 992.58 | –
303.16 K, x2 = 0.6018 | 967.06 | –
303.16 K, x2 = 0.9497 | 900.62 | –
308.15 K, x2 = 0 | 1032.53 | –
308.15 K, x2 = 0.0956 | 1018.71 | –
308.15 K, x2 = 0.199 | 1009.85 | –
308.15 K, x2 = 0.2901 | 1000.57 | –
308.15 K, x2 = 0.412 | 987.98 | –
308.15 K, x2 = 0.507 | 976.57 | –
308.15 K, x2 = 0.6018 | 962.31 | –
308.15 K, x2 = 0.7039 | 945.26 | –
308.15 K, x2 = 0.8031 | 926.08 | –
308.15 K, x2 = 0.8998 | 905.73 | –
308.16 K, x2 = 0.0454 | 1022.67 | –
308.16 K, x2 = 0.9497 | 894.58 | –
313.15 K, x2 = 0.0454 | 1019.09 | –
313.15 K, x2 = 0.0956 | 1015.1 | –
313.15 K, x2 = 0.6018 | 957.53 | –
313.16 K, x2 = 0 | 1029.14 | –
313.16 K, x2 = 0.199 | 1006.08 | –
313.16 K, x2 = 0.2901 | 996.56 | –
313.16 K, x2 = 0.412 | 983.25 | –
313.16 K, x2 = 0.507 | 971.82 | –
313.16 K, x2 = 0.7039 | 940.11 | –
313.16 K, x2 = 0.8031 | 920.58 | –
313.16 K, x2 = 0.8998 | 899.84 | –
313.16 K, x2 = 0.9497 | 888.5 | –
318.15 K, x2 = 0.9497 | 882.16 | –
318.16 K, x2 = 0 | 1025.72 | –
318.16 K, x2 = 0.0454 | 1015.66 | –
318.16 K, x2 = 0.0956 | 1011.66 | –
318.16 K, x2 = 0.199 | 1002.32 | –
318.16 K, x2 = 0.2901 | 992.61 | –
318.16 K, x2 = 0.412 | 978.49 | –
318.16 K, x2 = 0.507 | 967.05 | –
318.16 K, x2 = 0.6018 | 952.68 | –
318.16 K, x2 = 0.7039 | 934.92 | –
318.16 K, x2 = 0.8031 | 915.03 | –
318.16 K, x2 = 0.8998 | 893.91 | –
323.14 K, x2 = 0.0454 | 1012.2 | –
323.14 K, x2 = 0.0956 | 1007.98 | –
323.14 K, x2 = 0.199 | 998.56 | –
323.14 K, x2 = 0.2901 | 988.83 | –
323.14 K, x2 = 0.412 | 974.67 | –
323.14 K, x2 = 0.507 | 962.75 | –
323.14 K, x2 = 0.7039 | 929.55 | –
323.14 K, x2 = 0.8031 | 909.33 | –
323.14 K, x2 = 0.8998 | 887.92 | –
323.15 K, x2 = 0.6018 | 947.5 | –
323.15 K, x2 = 0.9497 | 876.1 | –
323.16 K, x2 = 0 | 1022.26 | –

CCCC(=O)[O-].C[NH2+]CCO [N-methyl-2-hydroxyethylammonium butanoate] + COC(C)=O
Conditions | mass density, [1] [kg/m3] | refractive index, [2]
288.14 K, x2 = 0.7912 | 977.2 | –
288.15 K, x2 = 0 | 1046 | 1.4579
288.15 K, x2 = 0.0646 | 1040 | 1.4558
288.15 K, x2 = 0.1097 | 1036.1 | 1.4556
288.15 K, x2 = 0.2074 | 1027.3 | 1.4509
288.15 K, x2 = 0.3079 | 1021.07 | 1.4449
288.15 K, x2 = 0.3983 | 1015.6 | 1.4399
288.15 K, x2 = 0.4973 | 1011.5 | 1.4327
288.15 K, x2 = 0.5928 | 1003 | 1.4232
288.15 K, x2 = 0.6898 | 991.4 | 1.413
288.15 K, x2 = 0.7912 | – | 1.3996
288.15 K, x2 = 0.8979 | – | 1.3833
288.15 K, x2 = 0.898 | 959.7 | –
288.15 K, x2 = 0.9483 | – | 1.3746
288.16 K, x2 = 0.9483 | 950.1 | –
293.14 K, x2 = 0.0646 | 1036.4 | –
293.14 K, x2 = 0.1097 | 1032.5 | –
293.14 K, x2 = 0.9483 | 943.8 | –
293.15 K, x2 = 0 | 1042.6 | –
293.15 K, x2 = 0.2074 | 1024 | –
293.15 K, x2 = 0.3079 | 1017.3 | –
293.15 K, x2 = 0.3983 | 1011.4 | –
293.15 K, x2 = 0.4973 | 1007.2 | –
293.15 K, x2 = 0.5928 | 998.4 | –
293.15 K, x2 = 0.6898 | 986.5 | –
293.15 K, x2 = 0.7912 | 971.7 | –
293.15 K, x2 = 0.898 | 953.8 | –
298.14 K, x2 = 0.0646 | 1032.8 | –
298.14 K, x2 = 0.3983 | 1007.1 | –
298.14 K, x2 = 0.6898 | 981.5 | –
298.14 K, x2 = 0.7912 | 966.2 | –
298.14 K, x2 = 0.898 | 947.7 | –
298.14 K, x2 = 0.9483 | 937.5 | –
298.15 K, x2 = 0 | 1039.2 | –
298.15 K, x2 = 0.1097 | 1028.9 | –
298.15 K, x2 = 0.2074 | 1019.6 | –
298.15 K, x2 = 0.3079 | 1013.2 | –
298.15 K, x2 = 0.4973 | 1002.9 | –
298.15 K, x2 = 0.5928 | 993.7 | –
303.14 K, x2 = 0.0646 | 1029.1 | –
303.14 K, x2 = 0.2074 | 1015.8 | –
303.14 K, x2 = 0.3983 | 1002.8 | –
303.14 K, x2 = 0.4973 | 998.4 | –
303.14 K, x2 = 0.5928 | 989.1 | –
303.14 K, x2 = 0.6898 | 976.4 | –
303.14 K, x2 = 0.7912 | 960.7 | –
303.14 K, x2 = 0.898 | 941.6 | –
303.14 K, x2 = 0.9483 | 931.1 | –
303.15 K, x2 = 0 | 1035.9 | –
303.15 K, x2 = 0.1097 | 1025.2 | –
303.15 K, x2 = 0.3079 | 1009 | –
308.14 K, x2 = 0.0646 | 1025.6 | –
308.14 K, x2 = 0.2074 | 1013.3 | –
308.14 K, x2 = 0.3079 | 1004.8 | –
308.14 K, x2 = 0.3983 | 998.5 | –
308.14 K, x2 = 0.4973 | 992.6 | –
308.14 K, x2 = 0.6898 | 971.3 | –
308.14 K, x2 = 0.7912 | 955.1 | –
308.14 K, x2 = 0.898 | 935.5 | –
308.14 K, x2 = 0.9483 | 924.6 | –
308.15 K, x2 = 0 | 1032.5 | –
308.15 K, x2 = 0.1097 | 1021.6 | –
308.15 K, x2 = 0.5928 | 984.3 | –
313.14 K, x2 = 0.0646 | 1022 | –
313.14 K, x2 = 0.1097 | 1018 | –
313.14 K, x2 = 0.2074 | 1009.2 | –
313.14 K, x2 = 0.3079 | 1000.6 | –
313.14 K, x2 = 0.3983 | 994.2 | –
313.14 K, x2 = 0.4973 | 988.8 | –
313.14 K, x2 = 0.6898 | 966.1 | –
313.14 K, x2 = 0.7912 | 949.5 | –
313.14 K, x2 = 0.898 | 929.3 | –
313.14 K, x2 = 0.9483 | 918.1 | –
313.15 K, x2 = 0.5928 | 979.6 | –
313.16 K, x2 = 0 | 1029.1 | –
318.14 K, x2 = 0.1097 | 1014.3 | –
318.14 K, x2 = 0.3079 | 996.3 | –
318.14 K, x2 = 0.5928 | 974.8 | –
318.14 K, x2 = 0.898 | 923 | –
318.14 K, x2 = 0.9483 | 911.5 | –
318.15 K, x2 = 0.0646 | 1018.3 | –
318.15 K, x2 = 0.2074 | 1006.1 | –
318.15 K, x2 = 0.3983 | 989.8 | –
318.15 K, x2 = 0.4973 | 983.8 | –
318.15 K, x2 = 0.6898 | 961 | –
318.15 K, x2 = 0.7912 | 943.8 | –
318.16 K, x2 = 0 | 1025.7 | –
323.14 K, x2 = 0.1097 | 1010.6 | –
323.14 K, x2 = 0.5928 | 970 | –
323.15 K, x2 = 0.0646 | 1014.6 | –
323.15 K, x2 = 0.2074 | 1001.4 | –
323.15 K, x2 = 0.3079 | 992.33 | –
323.15 K, x2 = 0.3983 | 985.3 | –
323.15 K, x2 = 0.4973 | 979.2 | –
323.15 K, x2 = 0.6898 | 955.7 | –
323.15 K, x2 = 0.7912 | 938.1 | –
323.15 K, x2 = 0.898 | 916.7 | –
323.15 K, x2 = 0.9483 | 904.9 | –
323.16 K, x2 = 0 | 1022.3 | –
